Assay results: article PMC9817970 (Cancers, 2022)

Tests used:
Test in all cases: Kinase panel profiling
Format in all cases: biochemical
Conditions in all cases: 10 μM ATP
ACK1 = molecular target: T1, ACK1 (Homo sapiens, UniProt Q07912)
T1 construct: purchased Reaction Biology Corp
Protocol: (§1) Kinase panel profiling was conducted by Reaction Biology Corp. (San Diego, CA, USA). A single dose (1.0 μM) of 6r was tested against 371 recombinant human kinases in the presence of 10 μM ATP.

Aurora A = molecular target: T2, Aurora A (Homo sapiens, UniProt O14965)
T2 construct: purchased Reaction Biology Corp
Protocol: as §1

BRSK1 = molecular target: T3, BRSK1 (Homo sapiens, UniProt Q8TDC3)
T3 construct: purchased Reaction Biology Corp
Protocol: as §1

BRSK2 = molecular target: T4, BRSK2 (Homo sapiens, UniProt Q8IWQ3)
T4 construct: purchased Reaction Biology Corp
Protocol: as §1

CAMK1d = molecular target: T5, CAMK1d (Homo sapiens, UniProt Q8IU85)
T5 construct: purchased Reaction Biology Corp
Protocol: as §1

CAMKK1 = molecular target: T6, CAMKK1 (Homo sapiens, UniProt Q8N5S9)
T6 construct: purchased Reaction Biology Corp
Protocol: as §1

CDK14/cyclin Y (PFTK1) = molecular target: T7, CDK14/cyclin Y (PFTK1) (Homo sapiens, UniProt O94921)
T7 construct: purchased Reaction Biology Corp
Protocol: as §1

CK1g2 = molecular target: T8, CK1g2 (Homo sapiens, UniProt P78368)
T8 construct: purchased Reaction Biology Corp
Protocol: as §1

CK2a = molecular target: T9, CK2a (Homo sapiens, UniProt P68400)
T9 construct: purchased Reaction Biology Corp
Protocol: as §1

CLK1 = molecular target: T10, CLK1 (Homo sapiens, UniProt P49759)
T10 construct: purchased Reaction Biology Corp
Protocol: as §1

EPHA5 = molecular target: T11, EPHA5 (Homo sapiens, UniProt P54756)
T11 construct: purchased Reaction Biology Corp
Protocol: as §1

EPHA8 = molecular target: T12, EPHA8 (Homo sapiens, UniProt P29322)
T12 construct: purchased Reaction Biology Corp
Protocol: as §1

ERBB2/HER2 = molecular target: T13, ERBB2/HER2 (Homo sapiens, UniProt P04626)
T13 construct: purchased Reaction Biology Corp
Protocol: as §1

ERK7/MAPK15 = molecular target: T14, ERK7/MAPK15 (Homo sapiens, UniProt Q8TD08)
T14 construct: purchased Reaction Biology Corp
Protocol: as §1

FGR = molecular target: T15, FGR (Homo sapiens, UniProt P09769)
T15 construct: purchased Reaction Biology Corp
Protocol: as §1

FLT1/VEGFR1 = molecular target: T16, FLT1/VEGFR1 (Homo sapiens, UniProt P17948)
T16 construct: purchased Reaction Biology Corp
Protocol: as §1

GRK4 = molecular target: T17, GRK4 (Homo sapiens, UniProt P32298)
T17 construct: purchased Reaction Biology Corp
Protocol: as §1

HPK1/MAP4K1 = molecular target: T18, HPK1/MAP4K1 (Homo sapiens, UniProt Q92918)
T18 construct: purchased Reaction Biology Corp
Protocol: as §1

JAK1 = molecular target: T19, JAK1 (Homo sapiens, UniProt P23458)
T19 construct: purchased Reaction Biology Corp
Protocol: as §1

KDR/VEGFR2 = molecular target: T20, KDR/VEGFR2 (Homo sapiens, UniProt P35968)
T20 construct: purchased Reaction Biology Corp
Protocol: as §1

LCK2/ICK = molecular target: T21, LCK2/ICK (Homo sapiens, UniProt Q9UPZ9)
T21 construct: purchased Reaction Biology Corp
Protocol: as §1

LOK/STK10 = molecular target: T22, LOK/STK10 (Homo sapiens, UniProt O94804)
T22 construct: purchased Reaction Biology Corp
Protocol: as §1

MEKK3 = molecular target: T23, MEKK3 (Homo sapiens, UniProt Q99759)
T23 construct: purchased Reaction Biology Corp
Protocol: as §1

MLCK2/MYLK2 = molecular target: T24, MLCK2/MYLK2 (Homo sapiens, UniProt Q9H1R3)
T24 construct: purchased Reaction Biology Corp
Protocol: as §1

MLK3/MAP3K11 = molecular target: T25, MLK3/MAP3K11 (Homo sapiens, UniProt Q16584)
T25 construct: purchased Reaction Biology Corp
Protocol: as §1

MST4 = molecular target: T26, MST4 (Homo sapiens, UniProt Q9P289)
T26 construct: purchased Reaction Biology Corp
Protocol: as §1

P38b/MAPK11 = molecular target: T27, P38b/MAPK11 (Homo sapiens, UniProt Q15759)
T27 construct: purchased Reaction Biology Corp
Protocol: as §1

PDK1/PDPK1 = molecular target: T28, PDK1/PDPK1 (Homo sapiens, UniProt O15530)
T28 construct: purchased Reaction Biology Corp
Protocol: as §1

PHKg2 = molecular target: T29, PHKg2 (Homo sapiens, UniProt P15735)
T29 construct: purchased Reaction Biology Corp
Protocol: as §1

PKAcb = molecular target: T30, PKAcb (Homo sapiens, UniProt P22694)
T30 construct: purchased Reaction Biology Corp
Protocol: as §1

PKG2/PRKG2 = molecular target: T31, PKG2/PRKG2 (Homo sapiens, UniProt Q13237)
T31 construct: purchased Reaction Biology Corp
Protocol: as §1

PKMYT1 = molecular target: T32, PKMYT1 (Homo sapiens, UniProt Q99640)
T32 construct: purchased Reaction Biology Corp
Protocol: as §1

PRKX = molecular target: T33, PRKX (Homo sapiens, UniProt P51817)
T33 construct: purchased Reaction Biology Corp
Protocol: as §1

RSK4 = molecular target: T34, RSK4 (Homo sapiens, UniProt Q9UK32)
T34 construct: purchased Reaction Biology Corp
Protocol: as §1

SRMS = molecular target: T35, SRMS (Homo sapiens, UniProt Q9H3Y6)
T35 construct: purchased Reaction Biology Corp
Protocol: as §1

SRPK2 = molecular target: T36, SRPK2 (Homo sapiens, UniProt P78362)
T36 construct: purchased Reaction Biology Corp
Protocol: as §1

STK21/CIT = molecular target: T37, STK21/CIT (Homo sapiens, UniProt O14578)
T37 construct: purchased Reaction Biology Corp
Protocol: as §1

STK39/STLK3 = molecular target: T38, STK39/STLK3 (Homo sapiens, UniProt Q9UEW8)
T38 construct: purchased Reaction Biology Corp
Protocol: as §1

TAOK3/JIK = molecular target: T39, TAOK3/JIK (Homo sapiens, UniProt Q9H2K8)
T39 construct: purchased Reaction Biology Corp
Protocol: as §1

TIE2/TEK = molecular target: T40, TIE2/TEK (Homo sapiens, UniProt Q02763)
T40 construct: purchased Reaction Biology Corp
Protocol: as §1

TRKA = molecular target: T41, TRKA (Homo sapiens, UniProt P04629)
T41 construct: purchased Reaction Biology Corp
Protocol: as §1

TTBK1 = molecular target: T42, TTBK1 (Homo sapiens, UniProt Q5TCY1)
T42 construct: purchased Reaction Biology Corp
Protocol: as §1

T22 sequence (O94804 whole entry): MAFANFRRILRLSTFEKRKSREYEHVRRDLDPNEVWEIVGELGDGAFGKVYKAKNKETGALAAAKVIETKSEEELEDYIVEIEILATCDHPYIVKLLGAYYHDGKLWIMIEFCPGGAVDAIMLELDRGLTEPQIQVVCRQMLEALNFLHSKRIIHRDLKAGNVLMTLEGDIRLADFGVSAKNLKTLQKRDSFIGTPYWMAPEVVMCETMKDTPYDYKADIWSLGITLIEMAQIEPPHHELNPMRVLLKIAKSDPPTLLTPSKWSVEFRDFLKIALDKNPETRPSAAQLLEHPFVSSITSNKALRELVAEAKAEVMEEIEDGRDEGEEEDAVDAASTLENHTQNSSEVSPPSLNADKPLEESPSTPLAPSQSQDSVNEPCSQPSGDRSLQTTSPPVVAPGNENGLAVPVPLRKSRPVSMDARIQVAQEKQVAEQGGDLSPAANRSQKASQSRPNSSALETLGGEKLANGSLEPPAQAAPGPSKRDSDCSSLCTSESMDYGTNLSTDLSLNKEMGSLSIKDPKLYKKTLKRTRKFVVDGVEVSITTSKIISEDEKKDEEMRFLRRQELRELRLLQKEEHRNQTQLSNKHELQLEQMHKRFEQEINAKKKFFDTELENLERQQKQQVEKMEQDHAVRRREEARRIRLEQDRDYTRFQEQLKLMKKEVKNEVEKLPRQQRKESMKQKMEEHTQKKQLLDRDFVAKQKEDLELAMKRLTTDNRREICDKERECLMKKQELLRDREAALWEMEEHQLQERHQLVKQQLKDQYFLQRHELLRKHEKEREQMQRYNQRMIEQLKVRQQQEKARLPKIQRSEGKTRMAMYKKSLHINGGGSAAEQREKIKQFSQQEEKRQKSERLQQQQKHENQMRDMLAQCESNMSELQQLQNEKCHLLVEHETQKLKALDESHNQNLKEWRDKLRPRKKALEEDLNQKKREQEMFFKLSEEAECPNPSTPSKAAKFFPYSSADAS
T6 sequence (Q8N5S9 whole entry): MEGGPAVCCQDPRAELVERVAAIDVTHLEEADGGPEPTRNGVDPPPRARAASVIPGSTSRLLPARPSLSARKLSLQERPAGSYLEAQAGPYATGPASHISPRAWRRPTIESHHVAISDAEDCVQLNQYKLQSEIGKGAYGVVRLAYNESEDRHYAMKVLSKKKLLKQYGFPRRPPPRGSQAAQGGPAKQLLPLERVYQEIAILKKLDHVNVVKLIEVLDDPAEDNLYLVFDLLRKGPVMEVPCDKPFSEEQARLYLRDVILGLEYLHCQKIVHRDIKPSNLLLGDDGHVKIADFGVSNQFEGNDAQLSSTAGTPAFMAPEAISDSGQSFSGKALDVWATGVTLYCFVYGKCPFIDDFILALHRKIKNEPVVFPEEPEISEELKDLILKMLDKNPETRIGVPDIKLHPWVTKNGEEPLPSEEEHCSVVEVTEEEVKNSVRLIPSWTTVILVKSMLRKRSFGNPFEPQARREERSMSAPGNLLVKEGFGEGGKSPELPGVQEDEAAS
T27 sequence (Q15759 whole entry): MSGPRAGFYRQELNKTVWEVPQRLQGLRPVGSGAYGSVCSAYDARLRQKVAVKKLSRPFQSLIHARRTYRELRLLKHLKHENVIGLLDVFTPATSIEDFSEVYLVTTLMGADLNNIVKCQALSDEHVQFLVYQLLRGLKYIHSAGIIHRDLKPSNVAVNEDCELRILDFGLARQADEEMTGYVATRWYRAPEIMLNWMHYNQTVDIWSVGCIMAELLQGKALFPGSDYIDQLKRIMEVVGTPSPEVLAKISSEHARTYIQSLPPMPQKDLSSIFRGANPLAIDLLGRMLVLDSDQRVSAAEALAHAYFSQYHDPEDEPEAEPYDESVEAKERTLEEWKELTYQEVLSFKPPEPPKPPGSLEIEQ
T9 sequence (P68400 whole entry): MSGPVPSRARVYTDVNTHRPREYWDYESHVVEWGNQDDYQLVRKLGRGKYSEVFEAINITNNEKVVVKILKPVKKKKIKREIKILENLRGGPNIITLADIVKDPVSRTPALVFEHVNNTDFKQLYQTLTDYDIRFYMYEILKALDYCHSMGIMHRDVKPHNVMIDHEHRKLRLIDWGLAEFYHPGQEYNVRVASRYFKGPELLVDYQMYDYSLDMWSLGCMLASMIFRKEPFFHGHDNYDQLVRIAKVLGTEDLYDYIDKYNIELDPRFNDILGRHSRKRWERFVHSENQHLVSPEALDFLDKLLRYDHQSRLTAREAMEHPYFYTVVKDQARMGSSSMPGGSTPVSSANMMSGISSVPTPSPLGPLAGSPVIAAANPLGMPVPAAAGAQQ
T19 sequence (P23458 whole entry): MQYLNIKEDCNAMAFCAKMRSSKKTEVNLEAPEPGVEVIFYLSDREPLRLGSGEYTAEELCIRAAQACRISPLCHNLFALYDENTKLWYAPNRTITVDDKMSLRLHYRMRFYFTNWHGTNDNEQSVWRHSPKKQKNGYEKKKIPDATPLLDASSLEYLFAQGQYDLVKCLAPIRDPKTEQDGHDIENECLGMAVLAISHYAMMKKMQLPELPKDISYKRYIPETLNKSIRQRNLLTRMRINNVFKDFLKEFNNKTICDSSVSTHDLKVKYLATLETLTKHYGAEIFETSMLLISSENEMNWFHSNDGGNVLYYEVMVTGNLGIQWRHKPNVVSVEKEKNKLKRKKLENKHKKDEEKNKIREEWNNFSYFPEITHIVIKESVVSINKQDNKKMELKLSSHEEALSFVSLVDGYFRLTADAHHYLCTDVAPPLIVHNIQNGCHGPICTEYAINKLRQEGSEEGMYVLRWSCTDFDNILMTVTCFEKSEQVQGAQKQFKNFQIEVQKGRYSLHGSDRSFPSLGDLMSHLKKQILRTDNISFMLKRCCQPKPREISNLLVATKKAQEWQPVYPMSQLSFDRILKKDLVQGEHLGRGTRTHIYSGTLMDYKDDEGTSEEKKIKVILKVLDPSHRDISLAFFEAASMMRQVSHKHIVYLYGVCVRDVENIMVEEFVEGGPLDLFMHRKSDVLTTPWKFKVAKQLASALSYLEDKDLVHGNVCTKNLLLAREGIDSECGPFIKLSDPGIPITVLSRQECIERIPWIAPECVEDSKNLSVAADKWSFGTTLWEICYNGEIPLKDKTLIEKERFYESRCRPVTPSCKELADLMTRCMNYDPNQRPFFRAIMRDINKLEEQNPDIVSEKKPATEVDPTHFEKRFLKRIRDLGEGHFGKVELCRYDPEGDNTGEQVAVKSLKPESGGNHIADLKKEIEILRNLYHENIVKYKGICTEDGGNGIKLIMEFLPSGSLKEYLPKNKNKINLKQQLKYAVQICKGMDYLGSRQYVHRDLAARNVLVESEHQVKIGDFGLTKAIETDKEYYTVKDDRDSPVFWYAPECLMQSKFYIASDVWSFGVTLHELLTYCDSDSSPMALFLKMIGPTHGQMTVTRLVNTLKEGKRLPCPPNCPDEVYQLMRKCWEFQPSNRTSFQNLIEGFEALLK
T7 sequence (O94921 whole entry): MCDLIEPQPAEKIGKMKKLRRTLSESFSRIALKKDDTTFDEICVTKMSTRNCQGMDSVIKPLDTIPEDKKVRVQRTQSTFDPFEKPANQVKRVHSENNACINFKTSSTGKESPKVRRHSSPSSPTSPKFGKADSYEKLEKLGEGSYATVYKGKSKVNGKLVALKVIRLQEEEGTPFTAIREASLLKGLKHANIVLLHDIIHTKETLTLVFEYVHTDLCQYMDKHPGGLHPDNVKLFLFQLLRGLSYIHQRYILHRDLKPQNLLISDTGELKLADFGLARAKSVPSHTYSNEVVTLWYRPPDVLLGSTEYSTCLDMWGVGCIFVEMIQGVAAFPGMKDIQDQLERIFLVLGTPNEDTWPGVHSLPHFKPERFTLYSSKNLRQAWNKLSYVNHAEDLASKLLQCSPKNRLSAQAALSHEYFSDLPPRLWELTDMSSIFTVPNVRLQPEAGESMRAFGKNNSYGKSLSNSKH
T7 sequence (Q8ND76 whole entry partner): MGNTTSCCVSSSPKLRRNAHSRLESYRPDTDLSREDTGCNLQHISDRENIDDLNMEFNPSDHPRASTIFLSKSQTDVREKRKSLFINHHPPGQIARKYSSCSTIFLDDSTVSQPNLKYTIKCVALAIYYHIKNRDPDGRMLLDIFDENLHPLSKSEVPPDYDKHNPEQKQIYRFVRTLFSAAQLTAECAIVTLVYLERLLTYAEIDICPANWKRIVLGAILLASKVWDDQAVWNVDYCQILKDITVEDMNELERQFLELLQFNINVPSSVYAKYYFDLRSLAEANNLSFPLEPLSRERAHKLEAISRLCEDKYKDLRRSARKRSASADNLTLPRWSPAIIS
T17 sequence (P32298 whole entry): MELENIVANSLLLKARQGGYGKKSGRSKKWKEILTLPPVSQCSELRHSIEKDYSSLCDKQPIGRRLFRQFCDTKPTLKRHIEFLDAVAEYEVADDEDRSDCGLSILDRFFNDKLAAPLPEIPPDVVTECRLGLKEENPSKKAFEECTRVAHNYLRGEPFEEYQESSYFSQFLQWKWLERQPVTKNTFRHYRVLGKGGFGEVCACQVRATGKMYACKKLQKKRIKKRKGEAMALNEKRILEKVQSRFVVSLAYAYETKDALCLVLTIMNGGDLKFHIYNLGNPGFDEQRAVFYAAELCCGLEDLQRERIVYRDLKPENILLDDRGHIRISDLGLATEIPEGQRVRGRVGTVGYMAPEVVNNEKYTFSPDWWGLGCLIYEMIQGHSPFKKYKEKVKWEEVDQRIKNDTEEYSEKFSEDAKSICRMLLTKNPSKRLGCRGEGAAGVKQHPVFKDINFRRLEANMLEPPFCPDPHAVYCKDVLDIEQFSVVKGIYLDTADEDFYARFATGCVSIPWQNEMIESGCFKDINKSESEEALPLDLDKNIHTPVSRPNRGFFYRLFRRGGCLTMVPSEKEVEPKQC

## Cc1ccc(NC(=O)c2ccc(CN3CCN(C)CC3)c(C(F)(F)F)c2)cc1-c1cnc2sc(N)nc2c1 [6r]
ACK1
  inhibition at 1 µM: 39.9%
Aurora A
  inhibition at 1 µM: 0%
BRSK1
  inhibition at 1 µM: 0%
BRSK2
  inhibition at 1 µM: 7.2%
CAMK1d
  inhibition at 1 µM: 14.3%
CAMKK1
  inhibition at 1 µM: 7.2%
CDK14/cyclin Y (PFTK1)
  inhibition at 1 µM: 0%
CK1g2
  inhibition at 1 µM: 38.9%
CK2a
  inhibition at 1 µM: 21.7%
CLK1
  inhibition at 1 µM: 0%
EPHA5
  inhibition at 1 µM: 78.5%
EPHA8
  inhibition at 1 µM: 72.3%
ERBB2/HER2
  inhibition at 1 µM: 5.4%
ERK7/MAPK15
  inhibition at 1 µM: 4.2%
FGR
  inhibition at 1 µM: 87.7%
FLT1/VEGFR1
  inhibition at 1 µM: 63.7%
GRK4
  inhibition at 1 µM: 0%
HPK1/MAP4K1
  inhibition at 1 µM: 0%
JAK1
  inhibition at 1 µM: 74.9%
KDR/VEGFR2
  inhibition at 1 µM: 77.8%
LCK2/ICK
  inhibition at 1 µM: 60.8%
LOK/STK10
  inhibition at 1 µM: 14%
MEKK3
  inhibition at 1 µM: 4.9%
MLCK2/MYLK2
  inhibition at 1 µM: 4.8%
MLK3/MAP3K11
  inhibition at 1 µM: 23.7%
MST4
  inhibition at 1 µM: 15.7%
P38b/MAPK11
  inhibition at 1 µM: 77.7%
PDK1/PDPK1
  inhibition at 1 µM: 7.2%
PHKg2
  inhibition at 1 µM: 5%
PKAcb
  inhibition at 1 µM: 0%
PKG2/PRKG2
  inhibition at 1 µM: 9.1%
PKMYT1
  inhibition at 1 µM: 10%
PRKX
  inhibition at 1 µM: 12.8%
RSK4
  inhibition at 1 µM: 1.8%
SRMS
  inhibition at 1 µM: 9.2%
SRPK2
  inhibition at 1 µM: 9%
STK21/CIT
  inhibition at 1 µM: 5.6%
STK39/STLK3
  inhibition at 1 µM: 19.2%
TAOK3/JIK
  inhibition at 1 µM: 17.8%
TIE2/TEK
  inhibition at 1 µM: 24.4%
TRKA
  inhibition at 1 µM: 9.7%
TTBK1
  inhibition at 1 µM: 9.9%
